Test results as given in patent US11945813B2, “5-substituted 4-amino-1H-benzo[c][1,2,6]thiadiazine 2,2-dioxides and formulations and uses thereof” (Firmenich Incorporated, priority 2018, dated 2024).

Target: T1, T1R2/T1R3 taste receptor (Homo sapiens, UniProt Q8TE23)
T1 sequence (Q8TE23 20-839): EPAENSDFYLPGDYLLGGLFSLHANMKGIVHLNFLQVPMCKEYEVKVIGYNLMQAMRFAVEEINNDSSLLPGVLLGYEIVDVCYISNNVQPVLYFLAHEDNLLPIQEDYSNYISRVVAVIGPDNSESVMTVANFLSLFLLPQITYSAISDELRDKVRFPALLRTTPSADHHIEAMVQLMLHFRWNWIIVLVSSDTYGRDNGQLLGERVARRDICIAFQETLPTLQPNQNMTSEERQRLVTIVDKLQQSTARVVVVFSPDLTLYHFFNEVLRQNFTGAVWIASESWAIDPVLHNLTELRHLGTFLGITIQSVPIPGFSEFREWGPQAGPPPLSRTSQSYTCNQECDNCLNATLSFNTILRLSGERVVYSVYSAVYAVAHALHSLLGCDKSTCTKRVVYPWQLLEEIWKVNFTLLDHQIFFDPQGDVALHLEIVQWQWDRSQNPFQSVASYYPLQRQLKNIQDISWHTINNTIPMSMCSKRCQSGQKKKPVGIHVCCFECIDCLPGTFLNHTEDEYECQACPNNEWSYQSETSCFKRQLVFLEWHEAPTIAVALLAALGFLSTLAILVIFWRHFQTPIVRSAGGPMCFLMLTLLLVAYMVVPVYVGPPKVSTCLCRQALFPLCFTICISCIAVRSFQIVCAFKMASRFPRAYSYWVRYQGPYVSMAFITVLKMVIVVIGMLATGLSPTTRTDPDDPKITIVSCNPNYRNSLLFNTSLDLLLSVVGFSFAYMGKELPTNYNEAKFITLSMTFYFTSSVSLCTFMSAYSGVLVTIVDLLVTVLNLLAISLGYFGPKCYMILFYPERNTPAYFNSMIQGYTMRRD
T1 sequence (Q7RTX0 21-852 partner): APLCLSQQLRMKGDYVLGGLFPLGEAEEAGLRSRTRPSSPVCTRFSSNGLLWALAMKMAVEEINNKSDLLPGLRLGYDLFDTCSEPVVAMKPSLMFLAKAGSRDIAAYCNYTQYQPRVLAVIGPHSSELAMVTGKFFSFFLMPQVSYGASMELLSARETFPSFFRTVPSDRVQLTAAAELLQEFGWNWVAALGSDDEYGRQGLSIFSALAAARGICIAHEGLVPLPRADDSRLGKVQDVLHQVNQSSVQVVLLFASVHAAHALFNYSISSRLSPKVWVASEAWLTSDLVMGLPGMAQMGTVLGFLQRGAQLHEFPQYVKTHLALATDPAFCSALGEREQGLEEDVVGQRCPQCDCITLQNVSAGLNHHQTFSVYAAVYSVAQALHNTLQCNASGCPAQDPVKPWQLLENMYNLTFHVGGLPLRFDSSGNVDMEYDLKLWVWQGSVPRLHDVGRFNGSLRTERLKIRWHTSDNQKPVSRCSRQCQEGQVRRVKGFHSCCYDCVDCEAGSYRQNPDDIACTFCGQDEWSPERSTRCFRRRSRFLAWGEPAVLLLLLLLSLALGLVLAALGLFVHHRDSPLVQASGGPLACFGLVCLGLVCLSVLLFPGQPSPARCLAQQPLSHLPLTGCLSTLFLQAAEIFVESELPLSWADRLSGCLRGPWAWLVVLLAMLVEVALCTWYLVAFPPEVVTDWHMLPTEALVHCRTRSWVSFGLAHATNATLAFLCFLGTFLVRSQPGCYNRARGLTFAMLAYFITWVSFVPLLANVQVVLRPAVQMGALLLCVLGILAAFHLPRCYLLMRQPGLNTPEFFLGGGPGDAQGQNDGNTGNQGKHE
Assay: Receptor-based assay: sweetener EC50 alone and with test compound (enhancement ratio)
Format: cell-based
Conditions: for Fructose Enhancement EC50 Ratio: sweetener fructose; for Sucralose Enhancement EC50 Ratio: sweetener sucralose; for Sucrose Enhancement EC50 Ratio: sweetener sucrose
Procedure, shortened: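 Sucrose, sucralose or fructose EC50 measured on human T1R2/T1R3, alone and with 3, 10 or 50 μM test compound. Enhancement is the EC50 ratio without/with compound, binned A >20, B 10-20, C >1 to <10.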

Structure (SMILES)	Fructose Enhancement EC50 Ratio (10 μM test compound)	Fructose Enhancement EC50 Ratio (50 μM test compound)	Sucralose Enhancement EC50 Ratio (10 μM test compound)	Sucralose Enhancement EC50 Ratio (50 μM test compound)	Sucrose Enhancement EC50 Ratio (3 μM test compound)	Sucrose Enhancement EC50 Ratio (10 μM test compound)	Sucrose Enhancement EC50 Ratio (50 μM test compound)
NC1=NS(=O)(=O)Nc2cccc(OC[C@H]3CCCN(c4ccc(C(=O)O)cn4)C3)c21 [Compound 302]	C (A “C” value indicates an enhancement ratio greater than 1 and less than 10)	C (A “C” value indicates an enhancement ratio greater than 1 and less than 10)	A (An “A” value indicates an enhancement ratio of greater than 20)	A (An “A” value indicates an enhancement ratio of greater than 20)	C (A “C” value indicates an enhancement ratio greater than 1 and less than 10)	C (A “C” value indicates an enhancement ratio greater than 1 and less than 10)	C (A “C” value indicates an enhancement ratio greater than 1 and less than 10)
NC1=NS(=O)(=O)Nc2cccc(OC[C@H]3CCCN(c4cc(C(=O)N5CCCCC5)ccn4)C3)c21 [Compound 613]	–	–	A (An “A” value indicates an enhancement ratio of greater than 20)	A (An “A” value indicates an enhancement ratio of greater than 20)	–	C (A “C” value indicates an enhancement ratio greater than 1 and less than 10)	C (A “C” value indicates an enhancement ratio greater than 1 and less than 10)
Cc1cc(C)nc(N2CCC[C@H](COc3cccc4c3C(N)=NS(=O)(=O)N4)C2)n1 [Compound 300, (S)-4-amino-5-((1-(4,6-dimethylpyrimidin-2-yl)piperidin-3-yl)methoxy)-1H-benzo[c][1,2,6]thiadiazine 2,2-dioxide]	–	–	A (An “A” value indicates an enhancement ratio of greater than 20)	A (An “A” value indicates an enhancement ratio of greater than 20)	C (A “C” value indicates an enhancement ratio greater than 1 and less than 10)	C (A “C” value indicates an enhancement ratio greater than 1 and less than 10)	C (A “C” value indicates an enhancement ratio greater than 1 and less than 10)
CC(C)CNC(=O)c1ccnc(N2CCC[C@H](COc3cccc4c3C(N)=NS(=O)(=O)N4)C2)c1 [Compound 616]	–	C (A “C” value indicates an enhancement ratio greater than 1 and less than 10)	A (An “A” value indicates an enhancement ratio of greater than 20)	A (An “A” value indicates an enhancement ratio of greater than 20)	C (A “C” value indicates an enhancement ratio greater than 1 and less than 10)	C (A “C” value indicates an enhancement ratio greater than 1 and less than 10)	C (A “C” value indicates an enhancement ratio greater than 1 and less than 10)
NC1=NS(=O)(=O)Nc2cccc(OC[C@H]3CCCN(c4ccc(C(=O)NC5CC5)cn4)C3)c21 [Compound 507]	–	C (A “C” value indicates an enhancement ratio greater than 1 and less than 10)	A (An “A” value indicates an enhancement ratio of greater than 20)	A (An “A” value indicates an enhancement ratio of greater than 20)	C (A “C” value indicates an enhancement ratio greater than 1 and less than 10)	C (A “C” value indicates an enhancement ratio greater than 1 and less than 10)	C (A “C” value indicates an enhancement ratio greater than 1 and less than 10)
NC1=NS(=O)(=O)Nc2cccc(OC[C@H]3CCCN(c4cccc(C(=O)NCC5CCCCC5)n4)C3)c21 [Compound 418]	–	–	B (A “B” value indicates an enhancement ratio from 10 to 20)	A (An “A” value indicates an enhancement ratio of greater than 20)	C (A “C” value indicates an enhancement ratio greater than 1 and less than 10)	C (A “C” value indicates an enhancement ratio greater than 1 and less than 10)	C (A “C” value indicates an enhancement ratio greater than 1 and less than 10)
Cc1cnc(N2CCC[C@H](COc3cccc4c3C(N)=NS(=O)(=O)N4)C2)nc1 [Compound 304]	C (A “C” value indicates an enhancement ratio greater than 1 and less than 10)	C (A “C” value indicates an enhancement ratio greater than 1 and less than 10)	A (An “A” value indicates an enhancement ratio of greater than 20)	A (An “A” value indicates an enhancement ratio of greater than 20)	C (A “C” value indicates an enhancement ratio greater than 1 and less than 10)	C (A “C” value indicates an enhancement ratio greater than 1 and less than 10)	C (A “C” value indicates an enhancement ratio greater than 1 and less than 10)
CCNC(=O)c1ccc(N2CCC[C@H](COc3cccc4c3C(N)=NS(=O)(=O)N4)C2)nc1 [Compound 501]	C (A “C” value indicates an enhancement ratio greater than 1 and less than 10)	C (A “C” value indicates an enhancement ratio greater than 1 and less than 10)	A (An “A” value indicates an enhancement ratio of greater than 20)	A (An “A” value indicates an enhancement ratio of greater than 20)	C (A “C” value indicates an enhancement ratio greater than 1 and less than 10)	C (A “C” value indicates an enhancement ratio greater than 1 and less than 10)	C (A “C” value indicates an enhancement ratio greater than 1 and less than 10)
NC1=NS(=O)(=O)Nc2cccc(OC[C@H]3CCCN(c4ccc(C(=O)NCC5CC5)cn4)C3)c21 [Compound 516]	–	C (A “C” value indicates an enhancement ratio greater than 1 and less than 10)	A (An “A” value indicates an enhancement ratio of greater than 20)	A (An “A” value indicates an enhancement ratio of greater than 20)	C (A “C” value indicates an enhancement ratio greater than 1 and less than 10)	C (A “C” value indicates an enhancement ratio greater than 1 and less than 10)	C (A “C” value indicates an enhancement ratio greater than 1 and less than 10)
NC1=NS(=O)(=O)Nc2cccc(OC[C@H]3CCCN(c4ccc(C(=O)N5CCCCC5)cn4)C3)c21 [Compound 513]	C (A “C” value indicates an enhancement ratio greater than 1 and less than 10)	C (A “C” value indicates an enhancement ratio greater than 1 and less than 10)	A (An “A” value indicates an enhancement ratio of greater than 20)	A (An “A” value indicates an enhancement ratio of greater than 20)	C (A “C” value indicates an enhancement ratio greater than 1 and less than 10)	C (A “C” value indicates an enhancement ratio greater than 1 and less than 10)	C (A “C” value indicates an enhancement ratio greater than 1 and less than 10)
